Numbers after ± are expanded uncertainties.
Experiment: mn = molality of the nth substance listed, in mol/kg
Details: 101 kPa, Liquid, Pycnometric method

CC(C)C[C@H](NC(=O)CN)C(=O)O [glycyl-L-leucine] + O
293.15 K
Details	mass density [kg/m3]
m1 = 0.01984	999.17 ± 0.9
m1 = 0.02628	999.49 ± 0.9
m1 = 0.03301	999.83 ± 0.9
m1 = 0.03973	1000.15 ± 0.9
m1 = 0.04936	1000.61 ± 0.9
m1 = 0.05894	1001.06 ± 0.9
m1 = 0.06889	1001.56 ± 0.91
m1 = 0.07838	1002.04 ± 0.91
m1 = 0.08821	1002.51 ± 0.91

CC(C)[C@H](NC(=O)CN)C(=O)O [glycyl-L-valine] + O
293.15 K
Details	mass density [kg/m3]
m1 = 0.01993	999.24 ± 0.9
m1 = 0.04051	1000.32 ± 0.9
m1 = 0.06065	1001.37 ± 0.91
m1 = 0.08097	1002.43 ± 0.91
m1 = 0.1005	1003.46 ± 0.91
m1 = 0.1203	1004.51 ± 0.91
m1 = 0.1403	1005.53 ± 0.91
m1 = 0.1594	1006.55 ± 0.91
m1 = 0.1799	1007.62 ± 0.91
m1 = 0.1995	1008.64 ± 0.91

NCC(=O)NCC(=O)O [glycylglycine] + O
293.15 K
Details	mass density [kg/m3]
m1 = 0.02014	999.33 ± 0.9
m1 = 0.04077	1000.49 ± 0.9
m1 = 0.06148	1001.64 ± 0.91
m1 = 0.09135	1003.33 ± 0.91
m1 = 0.1226	1005.06 ± 0.91
m1 = 0.1538	1006.84 ± 0.91
m1 = 0.1823	1008.4 ± 0.91
m1 = 0.2128	1010.11 ± 0.91
m1 = 0.2534	1012.46 ± 0.92

O=C([O-])C(F)(F)C(F)(F)C(F)(F)C(F)(F)C(F)(F)C(F)(F)C(F)(F)F.[Na+] [sodium perfluorooctanoate] + O
m1 = 0.04
Details	mass density [kg/m3]
293.15 K	1007.53 ± 0.91
298.15 K	1006.24 ± 0.38
303.15 K	1004.73 ± 0.41
308.15 K	1003.15 ± 0.92
